# According to PubChem BioAssay (NCI):
#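 Test compounds were applied to cells in 96-well plates for 48 hours at 5 doses. Here, GI50 denotes the concentration required for 50% inhibition of growth. TGI: total growth inhibition.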
# Columns and labels:
# Assay in all cases: NCI-60 cell line screen, 48 h
# SF-295 CNS = tested on: SF-295 CNS
# COLO 205 colon = tested on: COLO 205 colon
# BT-549 breast = tested on: BT-549 breast
# EKVX NSCLC = tested on: EKVX NSCLC
# HT29 colon = tested on: HT29 colon
# CAKI-1 renal = tested on: CAKI-1 renal
# CCRF-CEM leukemia = tested on: CCRF-CEM leukemia
# MDA-MB-435 = tested on: MDA-MB-435
# NCI-H23 lung = tested on: NCI-H23 lung
# NCI-H460 lung = tested on: NCI-H460 lung
# U251 CNS = tested on: U251 CNS
# SK-MEL-28 melanoma = tested on: SK-MEL-28 melanoma
# SF-539 CNS = tested on: SF-539 CNS
# SK-MEL-2 melanoma = tested on: SK-MEL-2 melanoma
# TK-10 renal = tested on: TK-10 renal
# T-47D breast = tested on: T-47D breast
# OVCAR-3 ovarian = tested on: OVCAR-3 ovarian
# DU-145 prostate = tested on: DU-145 prostate
# SW-620 colon = tested on: SW-620 colon
# UO-31 renal = tested on: UO-31 renal
# SF-268 CNS = tested on: SF-268 CNS
# PC-3 prostate = tested on: PC-3 prostate
# HL-60(TB) leukemia = tested on: HL-60(TB) leukemia
# NCI-H226 lung = tested on: NCI-H226 lung
# MDA-MB-231 breast = tested on: MDA-MB-231 breast
# A498 renal = tested on: A498 renal
# UACC-257 melanoma = tested on: UACC-257 melanoma
# SK-MEL-5 melanoma = tested on: SK-MEL-5 melanoma
# UACC-62 melanoma = tested on: UACC-62 melanoma
smiles,measurement,setting,value
C[C@H](c1ccc(F)cc1CCCC(=O)O)N(c1cc(F)ccc1F)S(=O)(=O)c1ccc(Cl)cc1,GI50,SF-295 CNS,23.1 µM
same,TGI,SF-295 CNS,> 75.9 µM
same,GI50,COLO 205 colon,33.7 µM
same,TGI,COLO 205 colon,> 92.9 µM
same,GI50,BT-549 breast,22.4 µM
same,TGI,BT-549 breast,68.8 µM
same,GI50,EKVX NSCLC,30 µM
same,TGI,EKVX NSCLC,> 100 µM
same,GI50,HT29 colon,35.3 µM
same,TGI,HT29 colon,> 100 µM
same,GI50,CAKI-1 renal,17.6 µM
same,TGI,CAKI-1 renal,> 81.2 µM
same,GI50,CCRF-CEM leukemia,19.3 µM
same,TGI,CCRF-CEM leukemia,> 69.7 µM
same,GI50,MDA-MB-435,20.6 µM
same,TGI,MDA-MB-435,51.3 µM
same,GI50,NCI-H23 lung,19.6 µM
same,TGI,NCI-H23 lung,59 µM
same,GI50,NCI-H460 lung,20.6 µM
same,TGI,NCI-H460 lung,52.8 µM
same,GI50,U251 CNS,31.9 µM
same,TGI,U251 CNS,> 100 µM
same,GI50,SK-MEL-28 melanoma,22.1 µM
same,TGI,SK-MEL-28 melanoma,65.5 µM
same,GI50,SF-539 CNS,24.5 µM
same,TGI,SF-539 CNS,67.9 µM
same,GI50,SK-MEL-2 melanoma,19.7 µM
same,TGI,SK-MEL-2 melanoma,41.7 µM
same,GI50,TK-10 renal,55.3 µM
same,TGI,TK-10 renal,> 100 µM
same,GI50,T-47D breast,19.2 µM
same,TGI,T-47D breast,> 83.9 µM
same,GI50,OVCAR-3 ovarian,19.6 µM
same,TGI,OVCAR-3 ovarian,44 µM
same,GI50,DU-145 prostate,34 µM
same,TGI,DU-145 prostate,> 100 µM
same,GI50,SW-620 colon,34.6 µM
same,TGI,SW-620 colon,> 100 µM
same,GI50,UO-31 renal,25.4 µM
same,TGI,UO-31 renal,> 100 µM
same,GI50,SF-268 CNS,34.5 µM
same,TGI,SF-268 CNS,> 100 µM
same,GI50,PC-3 prostate,26.5 µM
same,TGI,PC-3 prostate,> 100 µM
same,GI50,HL-60(TB) leukemia,30.7 µM
same,TGI,HL-60(TB) leukemia,> 95.1 µM
same,GI50,NCI-H226 lung,31 µM
same,TGI,NCI-H226 lung,> 100 µM
same,GI50,MDA-MB-231 breast,31.4 µM
same,TGI,MDA-MB-231 breast,> 100 µM
same,GI50,A498 renal,13.1 µM
same,TGI,A498 renal,57.6 µM
same,GI50,UACC-257 melanoma,26.9 µM
same,TGI,UACC-257 melanoma,> 100 µM
same,GI50,SK-MEL-5 melanoma,17.5 µM
same,TGI,SK-MEL-5 melanoma,38 µM
same,GI50,UACC-62 melanoma,14.2 µM
same,TGI,UACC-62 melanoma,39.2 µM
